The nature of data set [1]: Solubility test in water by visual inspection. Particulars: room temperature, one atmosphere; for solubility in water, result in words (visual inspection): about 1.2 mg sample, water added in 10 mL steps (tip compounds). It counts as physicochemical. As to the method:
(§1) In this example, the organic compounds synthesized in Examples 1 and 2 are used to explain the solubility of the organic compound of one embodiment of the present invention. The solubility tests of this example were performed at room temperature (RT) at one atmosphere.
(§2) Into a 110 mL sample bottle, 1.21 mg of 2,6tip2Py was put and 10 mL of water was added thereto. This mixture was irradiated with ultrasonic waves for one minute. A precipitated white powder was found by visual inspection for an insoluble residue. After further addition of 10 mL of water and one-minute ultrasonic wave irradiation, a precipitated white powder was found by visual inspection. This procedure was repeated until the dissolution was confirmed by visual inspection.
Into a 110 mL sample bottle, 1.23 mg of 2,7tip2SF was put and 10 mL of water was added thereto. This mixture was irradiated with ultrasonic waves for one minute. A precipitated white powder was found by visual inspection for an insoluble residue. After further addition of 10 mL of water and one-minute ultrasonic wave irradiation, a precipitated pale yellow powder was found by visual inspection. This procedure was repeated until the dissolution was confirmed by visual inspection.
Into a 5 mL sample bottle, 50.2 mg of 1,1′-pyridine-2,6-diyl-bis(1,3,4,6,7,8-hexahydro-2H-pyrimido[1,2-a]pyrimidine) (abbreviation: hpp2Py) having a structure where a hydropyrimidine ring is substituted for the imidazole ring of the guanidine skeleton in 2,6tip2Py, which is an organic compound of one embodiment of the present invention, was put, and 1.0 mL of water was added thereto. The dissolution was found by visual inspection for an insoluble residue.
as §2, with “20” for “110”, “1.16” for “1.21”, “1,1′-(9,9′-spirobi[9H-fluorene]-2,7-diyl)bis(1,3,4,6,7,8-hexahydro-2H-pyrimido[1,2-a]pyrimidine) (abbreviation: 2,7hpp2SF) having a structure where a hydropyrimidine ring is substituted for the imidazole ring of the guanidine skeleton in 2,7tip2SF, which is an organic compound of one embodiment of the present invention,” for “2,6tip2Py”, “put,” for “put”, “0.5” for “10”
The precipitated white powder was found until the total amount of water reached 3.0 mL. After further addition of 0.5 mL of water and ultrasonic wave irradiation, no precipitated white powder was found.

Data set [2] in a line: Solubility test in water by LC/MS. Conditions: room temperature, one atmosphere; for solubility in water, result in words (LC/MS): 1 mg in 1 mL water. It counts as physicochemical. As to the method: as §1
In the LC-MS analysis, liquid chromatography (LC) separation was carried out with ACQUITY UPLC manufactured by Waters Corporation, and MS analysis (mass spectrometry) was carried out with Xevo G2 Tof MS manufactured by Waters Corporation. Acquity UPLC BEH C8 (2.1 × 100 mm, 1.7 µm) was used as a column for the LC separation. Acetonitrile was used for Mobile Phase A and a 0.1 % aqueous solution of formic acid was used for Mobile Phase B. The amount of injection of the sample was 5.0 µL. Note that in the analysis, the wavelength of a photodiode array detector was set to 270 nm.
Into a 5 mL sample bottle, 1 mg of 2,6tip2Py was put and 1 mL of chloroform was added thereto. This mixture was irradiated with ultrasonic waves for five minutes. After it was confirmed that the solid was completely dissolved, this solution was diluted by five times with acetonitrile, whereby the concentration of the solution was adjusted to 200 mg/L. This solution was diluted with acetonitrile, whereby a solution with a concentration of 40 mg/L, a solution with a concentration of 20 mg/L, and a solution with a concentration of 10 mg/L were prepared. The prepared solutions were subjected to LC/MS, and the peak area values derived from 2,6tip2Py, which were obtained at the respective solution concentrations, were used to form calibration curves.
Into a 5 mL sample bottle, 1 mg of 2,6tip2Py was put and 1 mL of water was added thereto. This mixture was irradiated with ultrasonic waves for five minutes. This mixture was filtered through a membrane filter to remove the solid, and the resulting filtrate was diluted by five times with acetonitrile. The obtained solution was subjected to LC/MS.
Into a 5 mL sample bottle, 1 mg of 2,7tip2SF was put and 1 mL of water was added thereto. This mixture was irradiated with ultrasonic waves for five minutes. […]

In brackets after ≈: the same amount, converted by molar mass. Entries after “also recorded” stand apart in the source; their conditions may differ.

The solubility is the dissolved amount per volume that the medium holds. As for `c1cc(N2CCCn3ccnc32)nc(N2CCCn3ccnc32)c1` [2,6tip2Py, 8,8′-pyridine-2,6-diyl-bis(5,6,7,8-tetrahydroimidazo[1,2-a]pyrimidine)], the “solubility in water, result in words (visual inspection)” value (shortened to “solubility … (visual inspection)”) in data set [1] is reported as “precipitated white powder was found until the total amount of water reached 100 mL”. In data set [2], the “solubility in water, result in words (LC/MS)” value is recorded as “very low solubility in water”. In data set [2] (thermodynamic from solid, filtrate quantified by LC/MS against calibration curve, read-out: solubility in 1 mL of water), the solubility at 5 min came to 18 µg/mL (≈ 56 µM).
On to `c1ccc2c(c1)-c1ccccc1C21c2cc(N3CCCN4CCCN=C43)ccc2-c2ccc(N3CCCN4CCCN=C43)cc21` [2,7hpp2SF, 1,1′-(9,9′-spirobi[9H-fluorene]-2,7-diyl)bis(1,3,4,6,7,8-hexahydro-2H-pyrimido[1,2-a]pyrimidine)], for which, in data set [1], the “solubility … (visual inspection)” value is on record as “high solubility in water”.
As to `c1ccc2c(c1)-c1ccccc1C21c2cc(N3CCCn4ccnc43)ccc2-c2ccc(N3CCCn4ccnc43)cc21` [2,7tip2SF, 8,8′-(9,9′-spirobi[9H-fluorene]-2,7-diyl)bls(5,6,7,8-tetrahydrolmidazo[1,2-a]pyrimidine)], in data set [1], the “solubility … (visual inspection)” value is reported as “precipitated pale yellow powder was found until the total amount of water reached 100 mL”. In data set [2], the “solubility in water, result in words (LC/MS)” value is on record as “insoluble in water; also recorded: very low solubility in water”.
Regarding `c1cc(N2CCCN3CCCN=C32)nc(N2CCCN3CCCN=C32)c1` [hpp2Py, 1,1′-pyridine-2,6-diyl-bis(1,3,4,6,7,8-hexahydro-2H-pyrimido[1,2-a]pyrimidine)], the “solubility … (visual inspection)” value in data set [1] was “high solubility in water”. Further, the “weight dissolved in 1.0 mL of water” value in data set [1] (ultrasonic irradiation, visual inspection, per 1.0 mL of water) is “greater than or equal to 50.2 mg”.
